From patent US7094754B2, “Anti-aging and wound healing compounds” (Kimberly-Clark Worldwide, Inc., priority 2001, dated 2006)
Ends that are not written are not given here.

What was measured:
Type in all cases: cell-based
[1] = test system: neutrophils isolated from human blood; assay: Neutrophil migration assay (transwell); details: 10 nM, positive control; HSA 0.4%
Experimental: Peptides were synthesized and purified by the Microchemical Facility at Emory University or by SigmaGenesis. All peptides were analyzed by mass spectrometry after HPLC to assess purity. Approximately 0.5–2.0 milligrams of peptide were used to make fresh stock solutions (5 mg/mL in HBSS/HSA) for each migration assay. The peptide stock solutions were used to make more dilute solutions (1 mg/mL, 100 μg/mL, 10 μg/mL, 1 μg/mL, 100 ng/mL, and 10 ng/mL) in HBSS/HSA for the assays.
Neutrophils were isolated from human blood (collected in Vacutainerm tubes containing EDTA) by layering the blood/EDTA mixture (about 20 mL) on top of two layers of Histopaque™ 1119 (bottom layer, 18 mL) and 1077 (top layer, 7 mL) in 50 mL Falcon tubes. The tubes were centrifuged at 1800 rpm for 30 minutes (no brake). Four layers appeared in the tubes after the spin (from top to bottom layers): plasma, 1077, 1119, and red blood cells. The buffy coat between the plasma and 1077 layers contained lymphocytes, monocytes, and some platelets. The plasma layer, the buffy coat, and most of the 1077 layer was removed and discarded. The 1119 layer that contained the neutrophils was removed and was placed into a clean 50 mL tube. Dulbecco's Phosphate Buffered Saline (DPBS) was added to bring the volume to 50 mL. The cells were centrifuged for 15 minutes at 2100 rpm. The cells were resuspended in 10 mL of DPBS, transferred to 15 mL tubes, and centrifuged again for 10 minutes at 2000 rpm. This process was repeated to wash the cells a second time. After the supernatant was removed, the red blood cells were lysed by adding 6 mL of cold sterile water to each 15 mL of supernatant. Cells were mixed in the water for only 30 seconds. Six mL of cold 2% sterile saline was then added. Cells were centrifuged again for 10 minutes at 2000 rpm. The red supernatant (containing hemoglobin from red blood cells) was removed. This process of red blood cell lysis was repeated two more times to remove all of the red blood cells. After most of the red blood cells were removed, neutrophils were resuspended in 10 mL of HBSS/HSA for counting with trypan blue.
A neutrophil migration assay was performed in duplicate using a 24-well transwell plate (3 μm pore size for membrane). Transwell membranes were pre-moistened with 20–40 μL of HBSS/HSA (0.04–0.4%). Chemotactic solutions (500 μL) were added to the bottom of each well. […] Transwells were then placed into the chemotactic solutions. The plate was placed into the incubator (37° C., 5% CO2) for one hour. Cells that migrated through the membrane were counted using trypan blue.
In the neutrophil migration experiments, neutrophils that were isolated were approximately 95% viable. Neutrophils were resuspended in HBSS/0.4%HSA for this experiment. IL-8 (10 nM in the HBSS/0.4%HSA buffer) was used as a positive control for neutrophil migration.

[2] = Viability assay (MTT) in EpiDerm skin model; details: human, EpiDerm skin model (MatTek), relative to PBS control, average over 500 μM and 2 mM, read-out: total average viability
Source text: FIG. 16 provides a bar graph showing the percent living cells, relative to a positive control, in a skin model after treatment with two concentrations of peptide. The first sample, treated with phosphate buffered saline (PBS), is the positive control used to establish the cell count representing 100% viability. The second sample is a negative control where cells were exposed to 1% Triton-X100, showing that the assay can detect cell death. […] Data shown represent the average of three tests.
The sample containers were transferred to 6 well plates that contained fresh media. All peptides were dissolved in PBS at a final concentration of 10 mM, and 100 μL each peptide solution was pipetted onto the surface of the Epiderm sample container. Incubation was continued for 12 hours at 37° C., 5% CO2. After the incubation period, the sample containers were washed three times with PBS and the sample containers were transferred to a 24 well plate that contained 300 μL of MTT assay media per well (MTT concentration was 1 mg/mL). The colorimetric assay was allowed to develop for three hours (incubation at 37° C., 5% CO2). Sample containers were then transferred to a 24 well culture plate that contained 2 mL of isopropanol per well. Extraction of the colored precipitate occurred over a period of four hours at room temperature. Absorbance readings were taken at 570 nm and 650 nm for each sample. The percent viability of each sample relative to a PBS control was calculated as: 100×(OD570^sam−OD650^sam)/(OD570^con−OD650^con) (6) Routinely, the peptide sample was assayed in triplicate. Results The sequence of matrix metalloproteinase-2 (SEQ ID NO:14) is provided below to facilitate definition of the various domains and regions in matrix metalloproteinases.

[3] = test system: normal human dermal fibroblasts (NHDF); assay: NHDF migration assay (48-well chemotaxis chamber); details: three hours
Experimental: Normal, human dermal fibroblasts (NHDF) were obtained from Biowhittaker, (Walkersville, Md.) and propagated in T75 flasks in FBM media (500 mL, Biowhittaker) containing insulin, hFGF-b, GA-1000, and fetal bovine serum (10 mL) for up to 12 passages. For the migration assay, NHDF were washed once with 10 mL of Hank's buffered saline solution (HBSS). Three milliliters of trypsin (0.25%) in EDTA were added to the T75 flask for no more than five minutes to remove NHDF from the flask. NHDF in trypsin solution were added to 7 mL of FBM with no supplements added. NHDF were centrifuged for 5 minutes, and the supernatant was removed. NHDF were resuspended in 10 mL of FBM for counting. NHDF were centrifuged for another 5 minutes, and the supernatant was removed. NHDF were resuspended at 1×10^6 cells per mL in FBM without supplements. It was important to use FBM media only in migration assays because the complete media contains fibroblast growth factor and serum, both of which will trigger migration of fibroblasts.
Peptides were synthesized and purified by the Microchemical Facility at Emory University or by SigmaGenesis. All peptides were analyzed by mass spectrometry after HPLC to assess purity. Approximately 0.5–2.0 milligrams of peptide were used to make fresh stock solutions (5 mg/mL in PBS) for each migration assay. The peptide stock solutions in PBS were used to make more dilute solutions (1 mg/mL, 100 μg/mL, 10 μg/mL, 1 μg/mL, 100 ng/mL, 10 ng/mL) in FBM (without supplements) for the migration assays.
Polyvinylpyrrolidone-free polycarbonate membranes with […] pores (Neuroprobe, Inc., Gaithersburg, Md.) were washed with 90% ethanol for 15 minutes and rinsed four times with deionized water. Membranes were then placed into a glass dish containing an aqueous solution of 5 μg/mL gelatin. The glass dish was placed in to a water bath at about 90° C. for one hour. Membranes were removed from the gelatin solution and were allowed to dry for one hour in the 37° C. incubator.
A 48-well chemotaxis chamber (Neuroprobe, Inc., Gaithersburg, Md.) (see FIG. 20) was used for the migration assays. Twenty-eight/μL of each test solution were added to the bottom wells of the chamber in quadruplicate. A gelatin-treated membrane was placed carefully on top of the bottom wells. The gasket and top part of chamber were then placed carefully on top of the membrane. The apparatus was tightened using six thumbscrews. A solution of NHDF containing an estimated cell density (2×10^5 cells per mL) was made by adding 320 μL of the 1×10^6 cells per mL solution to 1.28 mL of FBM (no supplements). Fifty microliters of the 2×10^5 cells per mL NHDF solution were added to the top part of each well in the chamber. The chamber was placed in the incubator at 37° C./5% CO2 for three hours. The chamber was removed, the thumbscrews were removed, and the chamber was turned upside down on a paper towel. […] The membrane was carefully removed. […] The membrane was fixed with methanol and stained using the Diff-Quik Staining Solutions I and II. The nuclei of NHDF are stained purple. The membrane was mounted on a glass slide using cedarwood immersion oil and a cover slip. […] The average number of migrated NHDF in the negative control was subtracted from the experimental (peptide) data and positive control data.

Substance	Percent Neutrophil Migration exp.1 [1] [%]	viability at 12 h [2] [%]	percent of migrated NHDF compared to plasma fibronectin positive control ([3]; 100 μg/mL peptide) [%]	percent of migrated NHDF compared to plasma fibronectin positive control ([3]; 1000 μg/mL peptide) [%]
IL-8: positive control for neutrophil migration (10 nM in HBSS/HSA buffer) [reference compound]	81	–	–	–
NYNFFPRKPK [10-mer]	–	89.6	11±0	30±2
PRCGNPDVA [9-mer]	–	95.8	16±0	32±2
